Laboratory results published in PubChem BioAssay (NCI).
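Test compounds were applied to cells in 96-well plates for 48 hours at 5 doses. GI50: concentration for 50% inhibition of growth. Definition used: TGI = concentration required for complete inhibition of growth.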

Assays:
Experiment in all cases: DTP human tumour cell line panel, 48 h
SK-MEL-5 melanoma = test system: SK-MEL-5 melanoma
M14 melanoma = test system: M14 melanoma
UACC-62 melanoma = test system: UACC-62 melanoma
U251 CNS = test system: U251 CNS
CCRF-CEM leukemia = test system: CCRF-CEM leukemia
NCI-H460 lung = test system: NCI-H460 lung
HT29 colon = test system: HT29 colon
RXF 393 renal = test system: RXF 393 renal
HS 578T breast = test system: HS 578T breast
MDA-MB-231 breast = test system: MDA-MB-231 breast

Row | SMILES | TGI (SK-MEL-5 melanoma) | TGI (M14 melanoma) | TGI (UACC-62 melanoma) | TGI (U251 CNS) | TGI (CCRF-CEM leukemia) | TGI (NCI-H460 lung) | TGI (HT29 colon) | TGI (RXF 393 renal) | GI50 (M14 melanoma) | GI50 (HS 578T breast) | TGI (HS 578T breast) | GI50 (UACC-62 melanoma) | GI50 (U251 CNS) | GI50 (CCRF-CEM leukemia) | GI50 (NCI-H460 lung) | GI50 (HT29 colon) | GI50 (RXF 393 renal) | GI50 (SK-MEL-5 melanoma) | GI50 (MDA-MB-231 breast) | TGI (MDA-MB-231 breast)
1 | O=C1C=C(Nc2ccc(S(=O)(=O)Nc3ncccn3)cc2)c2ccccc2C1=O | 32.9 µM | 34.1 µM | 32.9 µM | 31.5 µM | > 100 µM | 42.7 µM | 45 µM | 48 µM | – | – | – | – | – | – | – | – | – | – | – | –
2 | Clc1ccc(OCc2nnc3n2N=C(c2ccccc2)CS3)c(Cl)c1 | > 100 µM | – | > 100 µM | > 100 µM | > 100 µM | > 100 µM | > 100 µM | > 100 µM | – | – | – | – | – | – | – | – | – | – | – | –
3 | CC12OC(C(=O)C13CCC3)C1C(=O)c3ccc4c(ccc5ccccc54)c3C(=O)C12 (stereo not given) | – | 45.4 µM | > 100 µM | 31.9 µM | 15.2 µM | 35.9 µM | 19.2 µM | 30.3 µM | 14.5 µM | 16 µM | 76.1 µM | 35.4 µM | 11.5 µM | 2.99 µM | 12 µM | 3.85 µM | 13.3 µM | – | – | –
4 | C=Cc1c(C)c2cc3[nH]c(cc4nc(cc5nc(cc1[nH]2)C(C)=C5CCC(=O)N(CC)CC)C(CCC(=O)N(CC)CC)=C4C)c(C)c3C=C | > 100 µM | > 100 µM | > 100 µM | > 100 µM | > 100 µM | > 100 µM | > 100 µM | > 100 µM | – | – | – | – | – | – | – | – | – | – | – | –
5 | COC(=O)CC(=O)NCC1=CCC(=O)CC1 | > 100 µM | > 100 µM | > 100 µM | > 100 µM | > 100 µM | > 100 µM | > 100 µM | > 100 µM | – | – | – | – | – | – | – | – | – | – | – | –
6 | NC(=S)N/N=C1/CN(c2ccc(Cl)c(Cl)c2)CC(=O)C1c1nc2ccccc2s1 (stereo not given) | > 100 µM | > 100 µM | > 100 µM | > 100 µM | > 100 µM | > 100 µM | > 100 µM | > 100 µM | – | – | – | – | – | – | – | – | – | – | – | –
7 | CC1=C(C(=O)Nc2ccccc2)C(c2cc(Cl)cc(Cl)c2)C(C(=O)Nc2ccccc2)=C(C)N1 | 27.7 µM | 27.8 µM | 22.2 µM | 12.9 µM | 14.9 µM | 62.8 µM | 21.4 µM | 26.3 µM | – | – | – | – | – | – | – | – | – | – | – | –
8 | CC(C)C(=S)N(C)O | > 77.7 µM | > 100 µM | > 61.9 µM | > 100 µM | – | > 75.5 µM | 13.2 µM | > 100 µM | – | – | – | – | – | – | – | – | – | – | – | –
9 | Cc1cn2c(/C=N/N=C(N)N)c(-c3ccncc3)nc2s1 | 34.6 µM | 30.3 µM | 34.1 µM | 31.6 µM | 22.4 µM | 30.4 µM | 46.8 µM | 29.8 µM | 16.7 µM | – | – | 19 µM | 17.8 µM | 7.16 µM | 16.8 µM | 20.1 µM | 14.9 µM | 19.8 µM | 52.6 µM | > 100 µM
10 | CC(C)(C)c1nc(-c2cccc(NS(=O)(=O)c3c(F)cccc3F)c2F)c(-c2ccnc(N)n2)s1 | > 100 µM | – | – | > 100 µM | > 86.2 µM | > 100 µM | > 100 µM | – | – | 61.1 µM | > 100 µM | – | 45.5 µM | 21.7 µM | 30.4 µM | < 0.01 µM | – | 0.0129 µM | 7.19 µM | > 69.9 µM
11 | C1CC2=C(C1)C1=S(S2)SC2=C1CCC2 | > 100 µM | > 100 µM | > 100 µM | > 100 µM | > 100 µM | > 100 µM | > 100 µM | > 100 µM | – | – | – | – | – | – | – | – | – | – | – | –
12 | c1cc[c]([Sn]([O]c2cccc3cccnc23)([O]c2cccc3cccnc23)[c]2ccccc2)cc1 | 0.593 µM | 0.4 µM | 0.502 µM | 2.6 µM | 0.44 µM | 3.66 µM | – | – | 0.198 µM | – | – | 0.223 µM | 0.938 µM | 0.183 µM | 1.36 µM | – | – | 0.245 µM | – | –
13 | O=C(/C(=N/Nc1ccccc1)c1ccc([N+](=O)[O-])cc1)c1ccc([N+](=O)[O-])cc1 | > 100 µM | > 100 µM | > 100 µM | > 100 µM | – | > 100 µM | > 100 µM | > 100 µM | – | – | – | – | – | – | – | – | – | – | – | –
14 | CCOC(=O)C1=C(C(=O)OCC)C2(c3ccccc3)N(O1)c1ccccc1C2(C)C (stereo not given) | > 100 µM | > 100 µM | > 100 µM | > 100 µM | > 100 µM | > 100 µM | > 100 µM | > 100 µM | – | – | – | – | – | – | – | – | – | – | – | –
15 | C/C(O)=C(\N=O)C(=O)NCc1ccccc1 | > 100 µM | – | > 100 µM | > 100 µM | > 100 µM | > 100 µM | > 100 µM | > 100 µM | – | – | – | – | – | – | – | – | – | – | – | –
16 | CCC(C)(O)c1cn(-c2ccc(S(=O)(=O)O)cc2)nn1 (stereo not given) | > 100 µM | > 100 µM | > 100 µM | > 100 µM | > 100 µM | > 100 µM | > 100 µM | > 100 µM | – | – | – | – | – | – | – | – | – | – | – | –
17 | CC(=O)O[C@H](C[C@H](C(C)C)N(C)C(=O)[C@@H](NC(=O)[C@H]1CCCCN1C)C(C)C)c1cccc(C(=O)N[C@@H](Cc2ccccc2)C[C@H](C)C(=O)O)n1 | 0.36 µM | – | > 25 µM | > 25 µM | > 25 µM | > 13.4 µM | > 8.21 µM | > 25 µM | 0.0237 µM | – | – | 0.0276 µM | 0.0353 µM | 0.0175 µM | 0.0297 µM | 0.0242 µM | 0.0225 µM | 0.0155 µM | 0.0332 µM | 10.1 µM
18 | C/C(CC(=O)Nc1ccc(NC(=O)C/C(C)=N\NC(N)=O)cc1)=N/NC(N)=O | > 100 µM | > 100 µM | > 100 µM | > 100 µM | > 100 µM | > 100 µM | > 100 µM | > 100 µM | – | – | – | – | – | – | – | – | – | – | – | –
19 | C[C@H](NC(=O)c1c(C(F)F)nn(C)c1Oc1cccc(C(F)(F)F)c1)c1ccc(C(=O)O)cc1 | > 100 µM | > 100 µM | > 100 µM | > 100 µM | > 100 µM | > 100 µM | > 100 µM | – | > 100 µM | > 100 µM | > 100 µM | > 100 µM | > 100 µM | > 100 µM | > 100 µM | > 100 µM | – | > 100 µM | > 100 µM | > 100 µM
